Source: publication PMC6522510 (Nature Communications, 2019)

What was measured:
Design in all cases: species or system AML cell lines (8); Primary HTS, single concentration about 10 uM, Cell Titer Glo viability; log10 luminescence, per cent inhibition relative to cycloheximide control
Conditions in all cases: 72 h, relative to cycloheximide control, log10 luminescence; inhibitor
MV4-11 = tested on: MV4-11
U937 = tested on: U937
CHRF288-11 = tested on: CHRF288-11
M07e = tested on: M07e
CMS = tested on: CMS
MOLM-13 = tested on: MOLM-13
CMK = tested on: CMK
ML-2 = tested on: ML-2

## Cn1cc(C2=C(c3cn(-c4ccccc4)c4ccccc34)C(=O)NC2=O)c2ccccc21 [SJ000580977-1]
MV4-11
  MV4-11 %inh: 3.843%
U937
  U937 %inh: 0.1058%
CHRF288-11
  CHRF288-11 %inh: 2.78%
M07e
  M07e %inh: -0.4981%
CMS
  CMS %inh: 0.9336%
MOLM-13
  MOLM-13 %inh: 2.403%
CMK
  CMK %inh: 6.892%
ML-2
  ML-2 %inh: -1.344%

## Cn1cc(C2=C(c3cn(C)c4ccccc34)C(=O)NC2=O)c2ccccc21 [SJ000580978-1]
MV4-11
  MV4-11 %inh: 62.31%
U937
  U937 %inh: 66.13%
CHRF288-11
  CHRF288-11 %inh: -0.8174%
M07e
  M07e %inh: 52.37%
CMS
  CMS %inh: 40.67%
MOLM-13
  MOLM-13 %inh: 3.271%
CMK
  CMK %inh: 24.68%
ML-2
  ML-2 %inh: 13.32%

## Cn1cc(C2=C(c3ccccc3C(F)(F)F)C(=O)NC2=O)c2ccccc21 [SJ000580979-1]
MV4-11
  MV4-11 %inh: 10.38%
U937
  U937 %inh: 1.904%
CHRF288-11
  CHRF288-11 %inh: 19.74%
M07e
  M07e %inh: -0.07648%
CMS
  CMS %inh: 5.043%
MOLM-13
  MOLM-13 %inh: 4.778%
CMK
  CMK %inh: 21.16%
ML-2
  ML-2 %inh: 0.8133%

## CCCn1cc(C2=C(c3cn(C)c4ccccc34)C(=O)NC2=O)c2ccccc21 [SJ000580980-1]
MV4-11
  MV4-11 %inh: 13.35%
U937
  U937 %inh: 35.21%
CHRF288-11
  CHRF288-11 %inh: 31.26%
M07e
  M07e %inh: 35.81%
CMS
  CMS %inh: 13.73%
MOLM-13
  MOLM-13 %inh: 64.41%
CMK
  CMK %inh: 44.58%
ML-2
  ML-2 %inh: 30.17%

## Cn1cc(C2=C(c3cccc(Cl)c3)C(=O)NC2=O)c2ccccc21 [SJ000580981-1]
MV4-11
  MV4-11 %inh: -5.929%
U937
  U937 %inh: 1.717%
CHRF288-11
  CHRF288-11 %inh: 3.619%
M07e
  M07e %inh: 1.057%
CMS
  CMS %inh: -3.182%
MOLM-13
  MOLM-13 %inh: -1.961%
CMK
  CMK %inh: -0.373%
ML-2
  ML-2 %inh: -1.322%

## O=C1NC(=NCCc2ccccc2F)S/C1=C\c1ccc2ncccc2c1 [SJ000580983-1]
MV4-11
  MV4-11 %inh: -0.6215%
U937
  U937 %inh: 4.047%
CHRF288-11
  CHRF288-11 %inh: 13.58%
M07e
  M07e %inh: 0.4729%
CMS
  CMS %inh: 2.155%
MOLM-13
  MOLM-13 %inh: 4.839%
CMK
  CMK %inh: 41.89%
ML-2
  ML-2 %inh: 8.671%

## COc1ccc(O)c(C(=O)c2ccc(C(=O)N[C@@H]3CCCNC[C@H]3NC(=O)c3ccncc3)cc2)c1F [SJ000580985-1]
MV4-11
  MV4-11 %inh: 52.11%
U937
  U937 %inh: 23.19%
CHRF288-11
  CHRF288-11 %inh: 19.87%
M07e
  M07e %inh: 4.451%
CMS
  CMS %inh: 1.516%
MOLM-13
  MOLM-13 %inh: 32.45%
CMK
  CMK %inh: 12.77%
ML-2
  ML-2 %inh: 46.48%

## Cn1cc(C2=C(Nc3ccccc3)C(=O)NC2=O)c2ccccc21 [SJ000580986-1]
MV4-11
  MV4-11 %inh: -0.9881%
U937
  U937 %inh: -0.4269%
CHRF288-11
  CHRF288-11 %inh: -2.441%
M07e
  M07e %inh: -1.248%
CMS
  CMS %inh: 2.457%
MOLM-13
  MOLM-13 %inh: 1.455%
CMK
  CMK %inh: -3.795%
ML-2
  ML-2 %inh: 0.1627%

## N#Cc1ccc(C(=O)c2cnn(-c3ccc(F)cc3)c2N)cc1 [SJ000580987-1]
MV4-11
  MV4-11 %inh: -4.232%
U937
  U937 %inh: 0.0125%
CHRF288-11
  CHRF288-11 %inh: -3.381%
M07e
  M07e %inh: -1.432%
CMS
  CMS %inh: 0.4553%
MOLM-13
  MOLM-13 %inh: -1.146%
CMK
  CMK %inh: -2.255%
ML-2
  ML-2 %inh: -0.9573%

## Cn1c(=O)c(Oc2cccc(F)c2)cc2cnc(NC3CCOCC3)nc21 [SJ000580988-1]
MV4-11
  MV4-11 %inh: 0.1701%
U937
  U937 %inh: 1.883%
CHRF288-11
  CHRF288-11 %inh: 0.6759%
M07e
  M07e %inh: 0.7165%
CMS
  CMS %inh: 1.491%
MOLM-13
  MOLM-13 %inh: 93.55%
CMK
  CMK %inh: 1.711%
ML-2
  ML-2 %inh: -0.3057%

## CC(=O)N1CCC(Nc2ncc3cc(Oc4ccc(F)cc4F)c(=O)n(C)c3n2)CC1 [SJ000580990-1]
MV4-11
  MV4-11 %inh: 0.8846%
U937
  U937 %inh: 4.841%
CHRF288-11
  CHRF288-11 %inh: 0.9354%
M07e
  M07e %inh: 1.958%
CMS
  CMS %inh: 0.4119%
MOLM-13
  MOLM-13 %inh: -1.534%
CMK
  CMK %inh: 3.354%
ML-2
  ML-2 %inh: -1.665%

## Fc1ccc(-c2c(-c3ccncc3)[nH]c3nccnc23)cc1 [SJ000580991-1]
MV4-11
  MV4-11 %inh: -5.653%
U937
  U937 %inh: 0.7484%
CHRF288-11
  CHRF288-11 %inh: 0.1739%
M07e
  M07e %inh: -1.27%
CMS
  CMS %inh: 2.205%
MOLM-13
  MOLM-13 %inh: -0.4618%
CMK
  CMK %inh: 11.62%
ML-2
  ML-2 %inh: -4.337%

## Nc1c(C(=O)c2cccc(CCC3(O)CCCC3)c2)cnn1-c1ccc(F)cc1 [SJ000580994-1]
MV4-11
  MV4-11 %inh: 2.023%
U937
  U937 %inh: 3.468%
CHRF288-11
  CHRF288-11 %inh: 5.85%
M07e
  M07e %inh: 2.495%
CMS
  CMS %inh: 0.1004%
MOLM-13
  MOLM-13 %inh: 0.5318%
CMK
  CMK %inh: 2.532%
ML-2
  ML-2 %inh: -0.2918%

## Cn1cc(C2=C(c3cn(CCCO)c4ccccc34)C(=O)NC2=O)c2ccccc21 [SJ000580995-1]
MV4-11
  MV4-11 %inh: 37.67%
U937
  U937 %inh: 2.993%
CHRF288-11
  CHRF288-11 %inh: 44.69%
M07e
  M07e %inh: 3.572%
CMS
  CMS %inh: 6.597%
MOLM-13
  MOLM-13 %inh: 52.73%
CMK
  CMK %inh: 64.37%
ML-2
  ML-2 %inh: -3.665%

## CCCCCNC(=O)[C@@H]1CCCN2C(=O)CC[C@H](NC(=O)[C@H](Cc3ccc(OP(=O)(O)O)cc3)NC(C)=O)C(=O)N12 [SJ000580996-1]
MV4-11
  MV4-11 %inh: -4.998%
U937
  U937 %inh: 0.5533%
CHRF288-11
  CHRF288-11 %inh: -2.344%
M07e
  M07e %inh: -1.329%
CMS
  CMS %inh: -2.301%
MOLM-13
  MOLM-13 %inh: -0.4821%
CMK
  CMK %inh: -6.908%
ML-2
  ML-2 %inh: -1.38%

## COc1ccc(CCN=C2NC(=O)/C(=C/c3ccc4ncccc4c3)S2)cc1 [SJ000580998-1]
MV4-11
  MV4-11 %inh: -1.039%
U937
  U937 %inh: 0.5801%
CHRF288-11
  CHRF288-11 %inh: -1.93%
M07e
  M07e %inh: 1.057%
CMS
  CMS %inh: -0.7764%
MOLM-13
  MOLM-13 %inh: 2.923%
CMK
  CMK %inh: -3.047%
ML-2
  ML-2 %inh: -1.934%

## CNCC#Cc1c(F)ccc2c1/C(=C/c1[nH]ccc1OC)C(=O)N2 [SJ000580999-1]
MV4-11
  MV4-11 %inh: 85.05%
U937
  U937 %inh: 85.1%
CHRF288-11
  CHRF288-11 %inh: 56.9%
M07e
  M07e %inh: 73.32%
CMS
  CMS %inh: 90.97%
MOLM-13
  MOLM-13 %inh: 105.9%
CMK
  CMK %inh: 104.6%
ML-2
  ML-2 %inh: 60.28%

## O=C1NC(O)C(c2c[nH]c3ccccc23)=C1c1c[nH]c2ccccc12 (stereo not drawn) [SJ000581000-1]
MV4-11
  MV4-11 %inh: 0.3489%
U937
  U937 %inh: -0.5983%
CHRF288-11
  CHRF288-11 %inh: 3.04%
M07e
  M07e %inh: -1.63%
CMS
  CMS %inh: -2.539%
MOLM-13
  MOLM-13 %inh: -0.2184%
CMK
  CMK %inh: -1.548%
ML-2
  ML-2 %inh: -2.056%

## Cn1cc(C2=C(Oc3ccccc3)C(=O)NC2=O)c2ccccc21 [SJ000581001-1]
MV4-11
  MV4-11 %inh: -0.8354%
U937
  U937 %inh: 0.6544%
CHRF288-11
  CHRF288-11 %inh: -2.432%
M07e
  M07e %inh: -0.2429%
CMS
  CMS %inh: -3.067%
MOLM-13
  MOLM-13 %inh: -0.02006%
CMK
  CMK %inh: -0.6422%
ML-2
  ML-2 %inh: -1.623%

## Nc1c(C(=O)c2cccc(-c3cccnc3)c2)cnn1-c1ccc(F)cc1F [SJ000581002-1]
MV4-11
  MV4-11 %inh: 0.1873%
U937
  U937 %inh: 25.61%
CHRF288-11
  CHRF288-11 %inh: 23.74%
M07e
  M07e %inh: 15.2%
CMS
  CMS %inh: 5.431%
MOLM-13
  MOLM-13 %inh: 19.66%
CMK
  CMK %inh: 96.76%
ML-2
  ML-2 %inh: 15.07%

## COc1ccc(C2=C(c3cn(C)c4ccccc34)C(=O)NC2=O)cc1OC [SJ000581003-1]
MV4-11
  MV4-11 %inh: 4.678%
U937
  U937 %inh: 6.689%
CHRF288-11
  CHRF288-11 %inh: 6.661%
M07e
  M07e %inh: -0.2143%
CMS
  CMS %inh: 5.298%
MOLM-13
  MOLM-13 %inh: 0.7842%
CMK
  CMK %inh: 38.95%
ML-2
  ML-2 %inh: -1.913%

## O=C1NC(=N[C@@H](CO)c2ccccc2)S/C1=C\c1ccc2ncccc2c1 [SJ000581004-1]
MV4-11
  MV4-11 %inh: 41.34%
U937
  U937 %inh: 9.087%
CHRF288-11
  CHRF288-11 %inh: 15.94%
M07e
  M07e %inh: 12.47%
CMS
  CMS %inh: 4.436%
MOLM-13
  MOLM-13 %inh: 24.69%
CMK
  CMK %inh: 55.48%
ML-2
  ML-2 %inh: 3.929%

## O=C1NC(=N[C@H](CO)c2ccccc2)S/C1=C\c1ccc2ncccc2c1 [SJ000581004-2]
MV4-11
  MV4-11 %inh: 3.175%
U937
  U937 %inh: 9.058%
CHRF288-11
  CHRF288-11 %inh: 1.03%
M07e
  M07e %inh: 10.69%
CMS
  CMS %inh: 2.583%
MOLM-13
  MOLM-13 %inh: 7.874%
CMK
  CMK %inh: 28.24%
ML-2
  ML-2 %inh: 2.475%

## Nc1c(C(=O)c2cccc(C#CCO)c2)cnn1-c1ccc(F)cc1 [SJ000581005-1]
MV4-11
  MV4-11 %inh: -2.436%
U937
  U937 %inh: -1.339%
CHRF288-11
  CHRF288-11 %inh: -2.428%
M07e
  M07e %inh: 1.15%
CMS
  CMS %inh: 3.189%
MOLM-13
  MOLM-13 %inh: -0.3055%
CMK
  CMK %inh: -3.113%
ML-2
  ML-2 %inh: -1.489%
